Measured values as given in patent EP1210344B1, “HETEROPOLYCYCLIC COMPOUNDS AND THEIR USE AS METABOTROPIC GLUTAMATE RECEPTOR ANTAGONISTS” (NPS PHARMACEUTICALS, INC., priority 1999, dated 2001).

Target: chimeric CaR/mGluR5d receptor (Homo sapiens, UniProt P41594)
Assay: CaR/mGluR5d Screening Assay (FLIPR, intracellular calcium)
Assay type: cell-based
Conditions: HEK 293 cells expressing the chimeric CaR/mGluR5d receptor, Fluo-3 fluorescence; read-out: IC50 value in relation to CaR/mGluR5d
Method: HEK 293 cells expressing the chimeric CaR/mGluR5d receptor (clonal cell line hCaR/hmGluR5d_hek6) are plated 24 hours prior to assay at a density of 100,000 cells per well in Collagen I-coated 96-well black, clear bottom plates (Becton Dickenson) in DMEM supplemented with 10% FBS (Hyclone).
On the day of the assay, tissue culture medium is aspirated from the wells of a plate and 80 µL of Assay Buffer (Assay Buffer is: 20 mM HEPES, 146 mM NaCl, 5 mM KCl, 1 mM MgCl2, 1 mM CaCl2, 1 mg/ml BSA, 1 mg/ml glucose, pH 7.4) supplemented with 6 µM of the Ca^2+-sensitive dye, Fluo-3 AM (Molecular Probes) and 0.025% Pluronic (Molecular Probes) is added to each well. The plate is then incubated in the dark for 1 hour at room temperature to efficiently load the cells with Fluo-3. At the end of the incubation, extracellular Fluo-3 is removed by washing the plate with Assay buffer. Assay Buffer is added back to each well (final volume = 160 µL) prior to beginning the assay.
The plate is loaded into a FLIPR robotic device (Molecular Devices) with the laser setting at 0.8 Watts. […] Relative fluorescence intensity (excitation λ = 488 nm / emission λ = 510 nM) is monitored at relevant time intervals throughout the assay period to measure receptor activation and/or inhibition.

Sequence of chimeric CaR/mGluR5d receptor (P41594 580-876, change not shown): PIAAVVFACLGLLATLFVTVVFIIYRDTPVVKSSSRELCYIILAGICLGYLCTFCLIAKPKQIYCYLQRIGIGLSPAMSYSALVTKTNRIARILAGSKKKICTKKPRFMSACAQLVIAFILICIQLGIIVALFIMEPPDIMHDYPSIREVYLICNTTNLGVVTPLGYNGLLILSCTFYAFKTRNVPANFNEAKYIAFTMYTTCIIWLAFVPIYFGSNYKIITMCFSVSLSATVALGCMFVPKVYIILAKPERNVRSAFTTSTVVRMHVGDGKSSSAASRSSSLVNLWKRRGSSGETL
Sequence of chimeric CaR/mGluR5d receptor (P41180 20-610 partner): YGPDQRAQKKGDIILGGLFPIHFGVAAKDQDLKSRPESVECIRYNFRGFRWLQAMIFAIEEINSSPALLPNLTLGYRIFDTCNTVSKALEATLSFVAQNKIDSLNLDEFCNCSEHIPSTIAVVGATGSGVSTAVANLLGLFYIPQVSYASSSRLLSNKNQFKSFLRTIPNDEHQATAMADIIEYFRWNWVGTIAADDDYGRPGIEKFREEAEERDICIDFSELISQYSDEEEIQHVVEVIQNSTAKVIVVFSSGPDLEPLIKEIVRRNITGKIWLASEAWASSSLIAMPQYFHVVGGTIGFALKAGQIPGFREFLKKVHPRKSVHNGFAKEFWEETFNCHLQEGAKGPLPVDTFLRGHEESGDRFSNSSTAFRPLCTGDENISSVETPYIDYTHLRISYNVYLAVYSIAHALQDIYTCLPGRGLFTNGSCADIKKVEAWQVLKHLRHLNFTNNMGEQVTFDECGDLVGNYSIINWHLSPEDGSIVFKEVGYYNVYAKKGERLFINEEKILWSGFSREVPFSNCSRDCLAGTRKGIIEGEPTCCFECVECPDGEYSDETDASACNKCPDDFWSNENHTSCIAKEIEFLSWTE

**Q.** `N#Cc1cccc(-c2nc(-c3ccccn3)co2)c1` [B52, 2-[3-cyanophenyl]-4-[pyridin-2-yl]-1,3-oxazole] was tested. Which IC50 did it give?
**A.** Its IC50 is 0.045 µM.
